Results as given in paper PMC12892976, “Alkylation-based optimization of antifungal FPPS inhibitors yields a potent, broad-spectrum lipophilic zoledronate derivative” (mBio, 2025).
Like-named read-outs stand apart in the source and are kept apart here.

Columns and labels:
Candida glabrata [1] = test: MIC/MFC broth microdilution (CLSI);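 further: broth microdilution following CLSI M27-Ed4, MFC taken as the lowest drug level yielding no growth once MIC wells were subcultured on SDA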
Experimental: (§1) Antifungal susceptibility was determined by broth microdilution according to the CLSI guidelines described in M27-Ed4 ([16]). […] MFC was determined by back-plating drug-treated cultures from MIC broths onto SDA plates. The MFC was defined as the lowest concentration from which no colonies could be cultured.

Trichophyton rubrum = test: checkerboard drug interaction (FICI, MICc); format: cell-based;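 further: simplified diagonal checkerboard screen pairing azole antifungals with FPPS inhibitors, FICI calculated under the Loewe additivity model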
Experimental: (§2) Drug interactions between antifungals and FPPS inhibitors were investigated using a simplified checkerboard diagonal screening method ([45]). […] FICIs were determined according to the Loewe additivity model ([17]).

Cryptococcus neoformans = test: MIC/MFC broth microdilution (CLSI);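 further: susceptibility testing followed the CLSI M27-Ed4 broth microdilution document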
Experimental: as §1

Trichophyton tonsurans = test: checkerboard drug interaction (FICI, MICc); format: cell-based;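 further: simplified diagonal checkerboard screen combining antifungals with FPPS inhibitors, with FICI calculated under the Loewe additivity model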
Experimental: as §2

Candida albicans = test: MIC/MFC broth microdilution (CLSI); format: cell-based; details: Candida albicans SC5314
Experimental: as §1

[2] = tested on: Cryptococcus deuterogattii; test: checkerboard drug interaction (FICI, MICc); format: cell-based; details: for INH FD (MIC-MICc fold decrease): fold decrease of inhibitor MIC;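 on all read-outs here: simplified diagonal checkerboard screen pairing antifungal drugs with FPPS inhibitors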
Experimental: as §2

Aspergillus udagawae = test: MIC broth microdilution (CLSI); format: cell-based; details: Aspergillus udagawae 8G81
Experimental: Antifungal susceptibility was determined by broth microdilution according to the CLSI guidelines described in M27-Ed4 ([16]).

Aspergillus flavus = test: MIC/MFC broth microdilution (CLSI); details: ATCC204304
Experimental: as §1

eight fungal species = test: MIC/MFC summary across the eight fungal species of Table 1; format: cell-based
Experimental: The antifungal activity of these compounds was evaluated according to CLSI guidelines ([16]).

Candida glabrata [3] = test: checkerboard drug interaction (FICI, MICc); format: cell-based; details: for INH FD (MIC-MICc fold decrease): fold decrease of inhibitor MIC;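 on all read-outs here: simplified diagonal checkerboard screen pairing antifungals with FPPS inhibitors, FICI calculated under the Loewe additivity model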
Experimental: as §2

HEK-293T cells = test: MTT reduction cytotoxicity assay; format: cell-based; details: Homo sapiens
Aspergillus fumigatus = test: checkerboard drug interaction (FICI, MICc); format: cell-based; details: for INH FD (MIC-MICc fold decrease): fold decrease of inhibitor MIC;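 on all read-outs here: simplified diagonal checkerboard screen pairing antifungals with FPPS inhibitors against Aspergillus fumigatus, with FICI calculated under the Loewe additivity model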
Experimental: as §2

[4] = C. deuterogattii, FLC:INH combination
[5] = C. deuterogattii, ITR:INH combination
[6] = C. deuterogattii, KET:INH combination
[7] = C. glabrata, FLC:INH combination
[8] = C. glabrata, ITR:INH combination
[9] = C. glabrata, KET:INH combination
[10] = A. fumigatus, FLC:INH combination
[11] = A. fumigatus, ITR:INH combination
[12] = A. fumigatus, KET:INH combination

O=P(O)(O)C(O)(Cn1ccnc1)P(=O)(O)O [ZOL, zoledronate]
0.61: FICI (Trichophyton tonsurans; VOR:ZOL)
≥4: FICI (Trichophyton rubrum; AMB:ZOL)
0.25: FICI (Trichophyton tonsurans; KET:ZOL) | FICI [2, 4] | FICI ([2]; FLC:ZOL) | FICI ([2]; with FLC, Cryptococcus deuterogattii)
32: INH MICc (FLC:INH) (Trichophyton rubrum; T. rubrum, MIC of the inhibitor in combination with fluconazole) | bisphosphonate MICc (Trichophyton rubrum; ZOL with CAS) | bisphosphonate MICc (Trichophyton rubrum; ZOL with FLC) | bisphosphonate MICc ([2]; ZOL with VOR)
256 mg/L: MIC / MEC (Aspergillus udagawae)
16: INH MICc (KET:INH) (Trichophyton rubrum; T. rubrum, MIC of the inhibitor in combination with ketoconazole) | bisphosphonate MICc (Trichophyton rubrum; ZOL with KET) | bisphosphonate MICc (Trichophyton rubrum; ZOL with VOR) | bisphosphonate MICc (Trichophyton tonsurans; ZOL with ITR) | bisphosphonate MICc (Trichophyton tonsurans; ZOL with KET) | bisphosphonate MICc (Trichophyton tonsurans; ZOL with VOR) | INH MICc ([2]; C. deuterogattii, KET:INH combination, MIC of the inhibitor in combination with KET) | KET FD (MIC-MICc fold decrease) ([2]; C. deuterogattii, KET:INH combination, fold decrease of KET MIC) | bisphosphonate MICc ([2]; ZOL with KET) | FLC FD (MIC-MICc fold decrease) (Candida glabrata [3]; C. glabrata, FLC:INH combination, fold decrease of FLC MIC) | bisphosphonate MICc (Aspergillus fumigatus; ZOL with AMB)
128: bisphosphonate MICc (Trichophyton rubrum; ZOL with 5FC) | bisphosphonate MICc (Trichophyton tonsurans; ZOL with 5FC) | bisphosphonate MICc ([2]; ZOL with 5FC) | bisphosphonate MICc ([2]; ZOL with AMB) | INH FD (MIC-MICc fold decrease) (Aspergillus fumigatus; [11])
0.09: FICI (Candida glabrata [3]; [7]) | FICI (Candida glabrata [3]; FLC:ZOL) | FICI (Candida glabrata [3]; with FLC, Candida glabrata)
2.05: FICI (Candida glabrata [3]; CAS:ZOL)
1.03: FICI (Aspergillus fumigatus; AMB:ZOL)
32 mg/L: MIC / MEC (Cryptococcus neoformans; Cryptococcus neoformans H99)
8: INH FD (KET:INH) (Trichophyton rubrum; T. rubrum, MIC-MICc fold decrease of the inhibitor, with ketoconazole) | bisphosphonate MICc (Trichophyton tonsurans; ZOL with FLC) | INH MICc ([2]; C. deuterogattii, FLC:INH combination, MIC of the inhibitor in combination with FLC) | FLC FD (MIC-MICc fold decrease) ([2]; C. deuterogattii, FLC:INH combination, fold decrease of FLC MIC) | INH FD (MIC-MICc fold decrease) [2, 4] | INH MICc ([2]; C. deuterogattii, ITR:INH combination, MIC of the inhibitor in combination with ITR) | INH FD (MIC-MICc fold decrease) [2, 5] | bisphosphonate MICc ([2]; ZOL with FLC) | bisphosphonate MICc ([2]; ZOL with ITR) | INH FD (MIC-MICc fold decrease) (Candida glabrata [3]; [7]) | ITR FD (MIC-MICc fold decrease) (Candida glabrata [3]; C. glabrata, ITR:INH combination, fold decrease of ITR MIC) | INH FD (MIC-MICc fold decrease) (Candida glabrata [3]; [8])
8 µg/mL: MIC (Candida glabrata [1]; Nakaseomyces glabratus, CBS138)
256: bisphosphonate MICc (Trichophyton rubrum; ZOL with AMB) | bisphosphonate MICc (Trichophyton tonsurans; ZOL with AMB)
0.75: FICI (Trichophyton rubrum; ITR:ZOL) | FICI (ITR:INH) (Trichophyton rubrum; T. rubrum, Fractional Inhibitory Concentration Index, itraconazole + inhibitor) | FICI (Trichophyton rubrum; with ITR, Trichophyton rubrum) | FICI (Aspergillus fumigatus; [10]) | FICI (Aspergillus fumigatus; [12]) | FICI (Aspergillus fumigatus; CAS:ZOL) | FICI (Aspergillus fumigatus; FLC:ZOL) | FICI (Aspergillus fumigatus; KET:ZOL) | FICI (Aspergillus fumigatus; VOR:ZOL)
0.51: FICI (Aspergillus fumigatus; [11]) | FICI (Aspergillus fumigatus; ITR:ZOL)
98.7 µg/mL: Geometric mean MIC (eight fungal species; across eight species) | MIC (eight fungal species; geometric mean across eight species, read-out: GM fungal MIC) | MIC (eight fungal species; read-out: Geometric mean MIC)
128 µg/mL: MIC (Candida albicans)
64: INH MICc (ITR:INH) (Trichophyton rubrum; T. rubrum, MIC of the inhibitor in combination with itraconazole) | bisphosphonate MICc (Trichophyton rubrum; ZOL with ITR) | bisphosphonate MICc (Trichophyton tonsurans; ZOL with CAS) | bisphosphonate MICc ([2]; ZOL with CAS) | FLC MICc (Aspergillus fumigatus; A. fumigatus, FLC:INH combination, MIC of FLC in combination with the inhibitor) | INH MICc (Aspergillus fumigatus; A. fumigatus, FLC:INH combination, MIC of the inhibitor in combination with FLC) | INH MICc (Aspergillus fumigatus; A. fumigatus, KET:INH combination, MIC of the inhibitor in combination with KET)
0.063: ITR MICc (Aspergillus fumigatus; A. fumigatus, ITR:INH combination, MIC of ITR in combination with the inhibitor)
181 µg/mL: MFC (eight fungal species; across eight species, read-out: Geometric mean MFC)
8 mg/L: MIC / MEC (Candida glabrata [1]; Candida glabrata CBS138 (ATCC 2001))
3.92: FICI (Trichophyton tonsurans; AMB:ZOL)
4: FLC FD (FLC:INH) (Trichophyton rubrum; T. rubrum, MIC-MICc fold decrease of fluconazole, negative = increase) | ITR FD (ITR:INH) (Trichophyton rubrum; T. rubrum, MIC-MICc fold decrease of itraconazole, negative = increase) | KET FD (KET:INH) (Trichophyton rubrum; T. rubrum, MIC-MICc fold decrease of ketoconazole, negative = increase) | INH FD (FLC:INH) (Trichophyton rubrum; T. rubrum, MIC-MICc fold decrease of the inhibitor, with fluconazole) | ITR FD (MIC-MICc fold decrease) ([2]; C. deuterogattii, ITR:INH combination, fold decrease of ITR MIC) | INH FD (MIC-MICc fold decrease) [2, 6] | KET FD (MIC-MICc fold decrease) (Candida glabrata [3]; C. glabrata, KET:INH combination, fold decrease of KET MIC) | INH FD (MIC-MICc fold decrease) (Candida glabrata [3]; [9]) | INH FD (MIC-MICc fold decrease) (Aspergillus fumigatus; [10]) | INH FD (MIC-MICc fold decrease) (Aspergillus fumigatus; [12])
0.5: FICI (Trichophyton rubrum; CAS:ZOL) | FICI (Trichophyton rubrum; FLC:ZOL) | FICI (FLC:INH) (Trichophyton rubrum; T. rubrum, Fractional Inhibitory Concentration Index, fluconazole + inhibitor) | FICI ([2]; VOR:ZOL)
> 128 µg/mL: MFC (Cryptococcus neoformans; Cryptococcus neoformans) | MFC (Candida albicans) | MFC (Aspergillus flavus) | MIC (Aspergillus flavus)
0.16: FICI (Candida glabrata [3]; [8]) | FICI (Candida glabrata [3]; ITR:ZOL) | FICI (Candida glabrata [3]; with ITR, Candida glabrata)
128 mg/L: MIC / MEC (Candida albicans)
1.5: FICI ([2]; CAS:ZOL)
>256 mg/L: MIC / MEC (Aspergillus flavus)
1.02: FICI ([2]; 5FC:ZOL)
0.63: FICI (Candida glabrata [3]; 5FC:ZOL) | FICI (Candida glabrata [3]; AMB:ZOL)
> 256 µg/mL: IC50 (HEK-293T cells; HEK-293T, read-out: HEK IC50) | IC50 (HEK-293T cells; HEK-293T cells, projected value, read-out: predicted IC50)
1: FICI (Trichophyton tonsurans; CAS:ZOL) | INH MICc (Candida glabrata [3]; C. glabrata, FLC:INH combination, MIC of the inhibitor in combination with FLC) | INH MICc (Candida glabrata [3]; C. glabrata, ITR:INH combination, MIC of the inhibitor in combination with ITR) | bisphosphonate MICc (Candida glabrata [3]; ZOL with 5FC) | bisphosphonate MICc (Candida glabrata [3]; ZOL with AMB) | bisphosphonate MICc (Candida glabrata [3]; ZOL with CAS) | bisphosphonate MICc (Candida glabrata [3]; ZOL with FLC) | bisphosphonate MICc (Candida glabrata [3]; ZOL with ITR) | bisphosphonate MICc (Candida glabrata [3]; ZOL with VOR)
512: bisphosphonate MICc (Aspergillus fumigatus; ZOL with 5FC)
32 µg/mL: MFC (Candida glabrata [1]; Nakaseomyces glabratus, CBS138) | MIC (Cryptococcus neoformans; Cryptococcus neoformans)
0.31: FICI (Trichophyton tonsurans; FLC:ZOL) | FICI [2, 6] | FICI ([2]; KET:ZOL) | FICI ([2]; with KET, Cryptococcus deuterogattii) | FICI (Candida glabrata [3]; [9]) | FICI (Candida glabrata [3]; KET:ZOL) | FICI (Candida glabrata [3]; with KET, Candida glabrata)
181.0 µg/mL: Geometric mean MFC (eight fungal species; across eight species)
2: FICI (Trichophyton rubrum; 5FC:ZOL) | INH FD (ITR:INH) (Trichophyton rubrum; T. rubrum, MIC-MICc fold decrease of the inhibitor, with itraconazole) | FICI (Trichophyton tonsurans; 5FC:ZOL) | FICI ([2]; AMB:ZOL) | INH MICc (Candida glabrata [3]; C. glabrata, KET:INH combination, MIC of the inhibitor in combination with KET) | bisphosphonate MICc (Candida glabrata [3]; ZOL with KET) | FICI (Aspergillus fumigatus; 5FC:ZOL) | FLC FD (MIC-MICc fold decrease) (Aspergillus fumigatus; A. fumigatus, FLC:INH combination, fold decrease of FLC MIC) | INH MICc (Aspergillus fumigatus; A. fumigatus, ITR:INH combination, MIC of the inhibitor in combination with ITR) | ITR FD (MIC-MICc fold decrease) (Aspergillus fumigatus; A. fumigatus, ITR:INH combination, fold decrease of ITR MIC) | KET MICc (Aspergillus fumigatus; A. fumigatus, KET:INH combination, MIC of KET in combination with the inhibitor) | KET FD (MIC-MICc fold decrease) (Aspergillus fumigatus; A. fumigatus, KET:INH combination, fold decrease of KET MIC)
0.38: FICI (Trichophyton rubrum; KET:ZOL) | FICI (KET:INH) (Trichophyton rubrum; T. rubrum, Fractional Inhibitory Concentration Index, ketoconazole + inhibitor) | FICI (Trichophyton rubrum; VOR:ZOL) | FICI (Trichophyton tonsurans; ITR:ZOL) | FICI [2, 5] | FICI ([2]; ITR:ZOL) | FICI ([2]; with ITR, Cryptococcus deuterogattii) | FICI (Candida glabrata [3]; VOR:ZOL)
